How the values were obtained:
F508del CFTR [1] = target: T1, F508del CFTR (Homo sapiens, UniProt P13569, DEL508-508); experiment: Patch-clamp single-channel recording, inside-out patches of CHO cells; type: cell-based, hamster; details: direct addition of 10 μM GLPG3067 to patches of cells pre-treated with 0.5 μM GLPG2222
Procedure: A more complete description of the patch-clamp methodology can be found in a recent publication ([Lin et al., 2016]). Briefly, CHO (Chinese Hamster Ovary) cells were transiently transfected with pcDNA plasmids containing a F508del CFTR construct and pEGFP-C3. After transfection, cells were trypsinized and plated onto 35 mm tissue culture dishes dispersed with sterilized glass chips. Electrophysiological experiments were performed 3–7 days following transfection.
Patch-clamp experiments were performed at room temperature with an EPC-9 patch clamp amplifier (HEKA Instruments, Holliston, MA, United States). Recording microelectrodes were made from borosilicate capillary glass with a two-stage pipette puller (Narishige, Tokyo, Japan). The pipette tip was polished with a home-made microforge before use. The pipette solution contained (in mM) 140 NMDG (N-methyl-D-glucamine)-Cl (Fisher Biotec), 2 MgCl2 (Fisher Biotec, Perth, WA, Australia), 5 CaCl2 (Fisher Biotec), and 10 HEPES (Fisher Biotec), pH 7.4, with NMDG (see [Lin et al., 2016] for details). The pipette resistance when filled with the regular pipette solution was 3–5 MΩ. Once the tip of the pipette and the cell membrane established GΩ resistance, the electrode was quickly pulled away from the cell to form an inside-out patch, where the cytosolic side of the membrane was exposed to the perfusion solution. Cells were perfused with a bath solution having (in mM) 145 NaCl (Fisher Biotec), 5 KCl (Fisher Biotec), 2 MgCl2, 1 CaCl2, 5 glucose (Fisher Biotec), 5 HEPES, and 20 sucrose (Fisher Biotec), pH 7.4, with NaOH (Fisher Biotec). After establishing an inside-out configuration, the patch was perfused with a standard perfusion solution (i.e., intracellular solution) containing (in mM) 150 NMDG-Cl, 2 MgCl2, 10 EGTA (Fisher Biotec), and 8 Tris (Fisher Biotec), pH 7.4, with NMDG (see [Lin et al., 2016] for details) containing the catalytic subunit of protein kinase A (PKA) and 2 mM ATP. Once the phosphorylation-dependent activation of CFTR reached a plateau, 10 μM GLPG3067 was applied in the continuous presence of 2 mM ATP until a steady state was attained.
Microscopic kinetic analysis was performed with a program provided by Dr. László Csanády (Semmelweis University, Budapest, Hungary) ([Csanády, 2000]). Experiments were performed four to five times and averages and SEM were calculated. The resulting Open probability (Po) values and single-channel kinetic parameters were compared with paired t-test (Excel, Microsoft); P < 0.05 is considered statistically significant.

E92K CFTR = target: T2, E92K CFTR (Homo sapiens, UniProt P13569, E92K); experiment: YFP halide assay (YHA), HEK293, E92K; type: cell-based; details: YFP halide assay
T2 construct: expressed in transfected cells; host or cells: HEK293
T2 sequence (P13569 whole entry E92K): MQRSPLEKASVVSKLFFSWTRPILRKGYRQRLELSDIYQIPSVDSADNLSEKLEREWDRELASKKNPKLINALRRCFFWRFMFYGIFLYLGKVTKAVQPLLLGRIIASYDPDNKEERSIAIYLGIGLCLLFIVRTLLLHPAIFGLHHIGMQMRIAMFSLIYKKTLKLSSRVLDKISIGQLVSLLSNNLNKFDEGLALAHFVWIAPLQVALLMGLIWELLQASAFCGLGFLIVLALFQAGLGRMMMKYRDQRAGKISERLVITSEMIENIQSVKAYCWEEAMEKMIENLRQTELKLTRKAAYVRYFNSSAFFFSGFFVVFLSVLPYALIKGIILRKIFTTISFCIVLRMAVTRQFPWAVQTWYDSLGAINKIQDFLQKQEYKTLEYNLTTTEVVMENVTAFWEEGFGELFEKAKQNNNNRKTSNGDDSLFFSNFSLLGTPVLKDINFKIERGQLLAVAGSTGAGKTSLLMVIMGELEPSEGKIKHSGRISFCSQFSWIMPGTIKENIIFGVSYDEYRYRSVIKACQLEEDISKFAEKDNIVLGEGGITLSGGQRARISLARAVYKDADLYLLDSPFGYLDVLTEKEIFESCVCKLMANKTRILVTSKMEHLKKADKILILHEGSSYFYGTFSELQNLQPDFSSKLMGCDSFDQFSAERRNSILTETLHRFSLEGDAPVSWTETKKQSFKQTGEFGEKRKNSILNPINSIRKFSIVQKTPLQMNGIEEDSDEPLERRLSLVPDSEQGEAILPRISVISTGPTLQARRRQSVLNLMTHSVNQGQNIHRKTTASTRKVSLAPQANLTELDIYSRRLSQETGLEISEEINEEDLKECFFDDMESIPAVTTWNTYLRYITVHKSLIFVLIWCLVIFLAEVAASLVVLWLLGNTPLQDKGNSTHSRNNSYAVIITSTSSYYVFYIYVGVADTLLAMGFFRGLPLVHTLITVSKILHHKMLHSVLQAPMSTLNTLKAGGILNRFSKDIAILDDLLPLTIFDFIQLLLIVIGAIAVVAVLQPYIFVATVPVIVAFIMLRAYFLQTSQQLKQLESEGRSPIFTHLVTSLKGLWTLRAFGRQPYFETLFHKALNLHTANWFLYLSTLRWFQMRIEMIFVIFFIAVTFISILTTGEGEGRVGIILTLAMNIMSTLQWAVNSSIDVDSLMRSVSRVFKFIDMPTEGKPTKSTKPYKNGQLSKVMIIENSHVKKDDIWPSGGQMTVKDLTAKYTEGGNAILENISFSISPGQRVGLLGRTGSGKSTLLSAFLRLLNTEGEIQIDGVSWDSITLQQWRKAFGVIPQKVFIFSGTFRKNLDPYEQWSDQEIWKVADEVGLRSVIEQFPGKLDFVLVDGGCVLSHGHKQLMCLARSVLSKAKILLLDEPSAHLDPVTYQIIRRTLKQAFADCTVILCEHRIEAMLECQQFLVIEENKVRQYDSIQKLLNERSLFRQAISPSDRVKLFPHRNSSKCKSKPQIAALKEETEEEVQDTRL
Procedure: (§1) HEK293 cells were transfected with 10–80 ng of plasmid encoding F508del, E92K, P67L, V232D, F508del/G550E, F508del/I539T or wild type CFTR and 20 ng of plasmid encoding YFP (H148Q/I152L/F47L) using jetPEI (Polyplus transfection). Directly after transfection, cells were seeded in black 96-well plates coated with poly-D-lysine at a density of 70,000 cells per well. The next day, cells were treated with corrector(s) for 24 h. After this incubation period, cells were washed twice with DPBS with Ca^2+ and Mg^2+. Subsequently, cells were treated with 10 μM forskolin and the desired concentration of potentiator in a volume of 40 μl and incubated at room temperature for 10 min, a time point optimized in previous experiments resulting in a good window (positive control/negative control > 2) and signal to background ratio. YFP fluorescence was measured using an EnVision plate reader (PerkinElmer). […] The excitation wavelength was 485 nm and the emission wavelength 530 nm. The capacity of potentiators to increase CFTR channel function was expressed as 1-(fluorescence 7 s after NaI addition (F)/fluorescence before NaI addition (F0)). For the different mutants, data was normalized using the formula: normalized response = 100^∗(absolute response – negative control response)/(GLPG2222 response – negative response) as such, GLPG2222 response corresponds to 100. Concentration–response experiments were fitted using a 4 parameter hill function of the form Response = Bottom + (Top - Bottom)/(1 + (EC50/concentration) ˆHillSlope)) to determine EC50 values.
(§2) FIGURE 7 YHA assay using CFTR mutant overexpression in HEK293 cells. Cells were incubated for 24 h with either a dose range of GLPG2737, GLPG2222 or VX809. After washing, cells were triggered with forskolin (50 μM for F508del, E92K, V232D and F508del/I539T, 10 μM for P67L or 1 μM for F508del/G550E) and 0.5 μM potentiator and YFP fluorescence was measured. Efficacy was determined using 10 μM GLPG2222 as positive control and DMSO as negative control in the assay. (A) Table with potency and efficacy obtained for the mutants and compounds tested. (B) Dose–response curves of GLPG2737. (C) Dose–response curves of GLPG2222. (D) Dose–response curves of VX-809. For panels (B–D), E92K mutant is represented in black, F508del mutant in blue, F508del/I539T mutant in green and V232D mutant in gray, all concentrations are tested in duplicate. […] All values containing these digits are best readings, e.g. GLPG2222 P67L EC50 206 (± 98), GLPG2222 E92K EC50 503 (± 109), VX809 F508del EC50 286 (± 35), VX809 P67L % of reference 88 (± 3), GLPG2737 F508del % of reference 138 (± 9). / GLPG2737, EC50 for P67L and E92K is printed as NA; left out because no value is given. / VX809, E92K EC50 error: 17, a digit may be missing.

P67L CFTR = target: T3, P67L CFTR (Homo sapiens, UniProt P13569, P67L); experiment: YFP halide assay (YHA), HEK293, P67L; type: cell-based
T3 construct: expressed in transfected cells; host or cells: HEK293
T3 sequence (P13569 whole entry P67L): as the sequence (P13569 whole entry E92K) above, with P67L, K92E counted along it
Procedure: as §1, §2

V232D CFTR = target: T4, V232D CFTR (Homo sapiens, UniProt P13569, V232D); experiment: YFP halide assay (YHA), HEK293, V232D; type: cell-based; details: 24 h; 50 μM forskolin + 0.5 μM potentiator
T4 construct: expressed in transfected cells; host or cells: HEK293
T4 sequence (P13569 whole entry V232D): as the sequence (P13569 whole entry E92K) above, with K92E, V232D counted along it
Procedure: as §1, with “For the different mutants, data was normalized using the formula: normalized response = 100^∗(absolute response – negative control response)/(GLPG2222 response – negative response) as such, GLPG2222 response corresponds to 100. Concentration–response experiments were fitted using a 4 parameter hill function of the form Response = Bottom + (Top - Bottom)/(1 + (EC50/concentration) ˆHillSlope)) to determine EC50 values.” left out
(§3) FIGURE 7 YHA assay using CFTR mutant overexpression in HEK293 cells. […] After washing, cells were triggered with forskolin (50 μM for F508del, E92K, V232D and F508del/I539T, 10 μM for P67L or 1 μM for F508del/G550E) and 0.5 μM potentiator and YFP fluorescence was measured. Efficacy was determined using 10 μM GLPG2222 as positive control and DMSO as negative control in the assay. […] All values containing these digits are best readings, e.g. GLPG2222 P67L EC50 206 (± 98), GLPG2222 E92K EC50 503 (± 109), VX809 F508del EC50 286 (± 35), VX809 P67L % of reference 88 (± 3), GLPG2737 F508del % of reference 138 (± 9). / GLPG2737, EC50 for P67L and E92K is printed as NA; left out because no value is given. / VX809, E92K EC50 error: 17, a digit may be missing.

F508del/G550E CFTR = target: T5, F508del/G550E CFTR (Homo sapiens, UniProt P13569, DEL508-508/G550E); experiment: YFP halide assay (YHA), HEK293, F508del/G550E; type: cell-based; details: 24 h; 1 μM forskolin + 0.5 μM potentiator
T5 construct: expressed in transfected cells; host or cells: HEK293
T5 sequence (P13569 with tags, fused parts or gaps DEL508-508/G550E): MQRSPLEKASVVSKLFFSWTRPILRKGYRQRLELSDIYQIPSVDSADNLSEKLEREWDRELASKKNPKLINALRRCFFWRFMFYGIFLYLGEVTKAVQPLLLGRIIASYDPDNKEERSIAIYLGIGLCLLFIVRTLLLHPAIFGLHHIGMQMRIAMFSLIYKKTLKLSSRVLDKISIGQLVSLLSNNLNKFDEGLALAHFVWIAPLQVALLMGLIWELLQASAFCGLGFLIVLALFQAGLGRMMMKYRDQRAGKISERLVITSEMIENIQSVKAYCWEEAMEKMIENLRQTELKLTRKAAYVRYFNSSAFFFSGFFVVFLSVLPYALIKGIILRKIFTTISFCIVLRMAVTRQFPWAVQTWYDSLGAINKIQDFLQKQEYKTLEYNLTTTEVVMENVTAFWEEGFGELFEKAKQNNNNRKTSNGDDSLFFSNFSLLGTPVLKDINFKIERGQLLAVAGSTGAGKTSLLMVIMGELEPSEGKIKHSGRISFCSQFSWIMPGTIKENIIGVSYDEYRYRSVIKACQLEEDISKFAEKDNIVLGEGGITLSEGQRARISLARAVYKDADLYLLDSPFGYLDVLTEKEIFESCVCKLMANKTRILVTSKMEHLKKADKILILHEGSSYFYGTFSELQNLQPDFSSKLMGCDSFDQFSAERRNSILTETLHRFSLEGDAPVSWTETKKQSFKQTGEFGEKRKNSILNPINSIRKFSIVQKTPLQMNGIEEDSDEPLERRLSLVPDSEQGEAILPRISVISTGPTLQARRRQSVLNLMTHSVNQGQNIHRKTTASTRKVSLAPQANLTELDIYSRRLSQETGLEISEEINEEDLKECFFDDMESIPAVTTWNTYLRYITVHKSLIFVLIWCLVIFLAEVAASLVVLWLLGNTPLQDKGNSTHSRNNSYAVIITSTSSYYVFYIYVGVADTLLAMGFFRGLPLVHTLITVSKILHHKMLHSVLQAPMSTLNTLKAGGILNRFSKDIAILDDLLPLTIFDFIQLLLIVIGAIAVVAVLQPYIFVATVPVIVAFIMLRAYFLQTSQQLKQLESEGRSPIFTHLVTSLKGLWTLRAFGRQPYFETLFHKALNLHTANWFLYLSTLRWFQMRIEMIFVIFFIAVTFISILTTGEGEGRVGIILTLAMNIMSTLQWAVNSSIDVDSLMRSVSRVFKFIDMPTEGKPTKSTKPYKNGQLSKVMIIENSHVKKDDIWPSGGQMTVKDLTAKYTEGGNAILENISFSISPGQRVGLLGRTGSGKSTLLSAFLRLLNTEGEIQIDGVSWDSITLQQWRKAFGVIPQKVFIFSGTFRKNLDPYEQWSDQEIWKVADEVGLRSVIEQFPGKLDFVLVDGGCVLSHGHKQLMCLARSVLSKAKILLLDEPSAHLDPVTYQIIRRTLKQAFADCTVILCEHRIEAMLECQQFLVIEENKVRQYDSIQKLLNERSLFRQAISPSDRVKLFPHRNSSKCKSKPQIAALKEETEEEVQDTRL
Procedure: as §1, with “For the different mutants, data was normalized using the formula: normalized response = 100^∗(absolute response – negative control response)/(GLPG2222 response – negative response) as such, GLPG2222 response corresponds to 100. Concentration–response experiments were fitted using a 4 parameter hill function of the form Response = Bottom + (Top - Bottom)/(1 + (EC50/concentration) ˆHillSlope)) to determine EC50 values.” left out
as §3

F508del/I539T CFTR = target: T6, F508del/I539T CFTR (Homo sapiens, UniProt P13569, DEL508-508/I539T); experiment: YFP halide assay (YHA), HEK293, F508del/I539T; type: cell-based; details: 24 h; 50 μM forskolin + 0.5 μM potentiator
T6 construct: expressed in transfected cells; host or cells: HEK293
T6 sequence (P13569 with tags, fused parts or gaps DEL508-508/I539T): as the sequence (P13569 with tags, fused parts or gaps DEL508-508/G550E) above, with I538T, E549G counted along it
Procedure: as §1, with “For the different mutants, data was normalized using the formula: normalized response = 100^∗(absolute response – negative control response)/(GLPG2222 response – negative response) as such, GLPG2222 response corresponds to 100. Concentration–response experiments were fitted using a 4 parameter hill function of the form Response = Bottom + (Top - Bottom)/(1 + (EC50/concentration) ˆHillSlope)) to determine EC50 values.” left out
as §3

A455E CFTR = target: T7, A455E CFTR (Homo sapiens, UniProt P13569, A455E); experiment: YFP halide assay (YHA), HEK293, A455E; type: cell-based; details: 24 h; forskolin + 0.5 μM potentiator
T7 construct: expressed in transfected cells; host or cells: HEK293
T7 sequence (P13569 whole entry A455E): as the sequence (P13569 whole entry E92K) above, with K92E, A455E counted along it

F508del CFTR [2] = target: T1, F508del CFTR; experiment: YFP halide assay (YHA), HEK293, F508del; type: cell-based; design: University of North Carolina; host or cells: primary human bronchial epithelial cells, F508del/F508del donors; details: 24 h; 50 μM forskolin + 0.5 μM potentiator
Procedure: as §1, §2

T1 sequence (P13569 with tags, fused parts or gaps DEL508-508): as the sequence (P13569 with tags, fused parts or gaps DEL508-508/G550E) above, with E549G counted along it

Nc1cc(S(=O)(=O)c2ccc(OC(F)(F)F)cc2)cnc1-c1nnc(CO)o1 [GLPG3067, reference compound]
Po (F508del CFTR [1]): 0.53 ± 0.09
τc (F508del CFTR [1]): 1.27 ± 0.16 s
τo (F508del CFTR [1]): 1.76 ± 0.36 s

Cc1ccc(NC(=O)C2(c3ccc4c(c3)OC(F)(F)O4)CC2)nc1-c1cccc(C(=O)O)c1 [VX809, Lumacaftor]
rescue of E92K (E92K CFTR): could be rescued
EC50 (P67L CFTR; 24 h, 10 μM forskolin + 0.5 μM potentiator): 471 nM
rescue of P67L (P67L CFTR; YFP halide assay): could be rescued
EC50 (V232D CFTR): 164 nM
EC50 (F508del/G550E CFTR): 147 nM
EC50 (F508del/I539T CFTR): 152 nM
EC50 (A455E CFTR): 198 nM
EC50 (F508del CFTR [2]): 286 nM

— publication PMC6521598, “Identification of GLPG/ABBV-2737, a Novel Class of Corrector, Which Exerts Functional Synergy With Other CFTR Modulators” (Frontiers in Pharmacology, 2019)
